Assay results taken from patent US20240279240A1, “HETEROCYCLIC DERIVATIVES AS JANUS KINASE INHIBITORS” (CHIESI FARMACEUTICI S.P.A., priority 2021, published 2024).

Tests used:
JAK 2 = JAK 2 (Homo sapiens, UniProt O60674); test: Biochemical potency on JAK2, TR-FRET LANCE Ultra kinase assay (examples 1-99); conditions: ATP at Km (0.7 μM), read-out: JAK2 inhibitory activity (pIC50 class) (converted)
Summary of the method: (§1)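 Inhibition of each JAK family kinase is measured as loss of phosphotyrosine signal on a ULight peptide, detected by Eu-PT66 antibody (final 0.5 nM) via time-resolved FRET. ATP sits near Km for each isoform. Dose–response spans 20 μM downward in 5-fold steps, 11 points.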

JAK 1 = JAK 1 (Homo sapiens, UniProt P23458); test: Biochemical potency on JAK1, TR-FRET LANCE Ultra kinase assay (examples 1-99); conditions: ATP at Km (20 μM), read-out: JAK1 inhibitory activity (pIC50 class) (converted)
Summary of the method: as §1

JAK 3 = molecular target: T1, JAK 3 (Homo sapiens, UniProt P52333); test: Biochemical potency on JAK3, TR-FRET LANCE Ultra kinase assay (examples 1-99); conditions: ATP at Km (0.2 μM), read-out: JAK3 inhibitory activity (pIC50 class) (converted)
T1 sequence (P52333 1-1124): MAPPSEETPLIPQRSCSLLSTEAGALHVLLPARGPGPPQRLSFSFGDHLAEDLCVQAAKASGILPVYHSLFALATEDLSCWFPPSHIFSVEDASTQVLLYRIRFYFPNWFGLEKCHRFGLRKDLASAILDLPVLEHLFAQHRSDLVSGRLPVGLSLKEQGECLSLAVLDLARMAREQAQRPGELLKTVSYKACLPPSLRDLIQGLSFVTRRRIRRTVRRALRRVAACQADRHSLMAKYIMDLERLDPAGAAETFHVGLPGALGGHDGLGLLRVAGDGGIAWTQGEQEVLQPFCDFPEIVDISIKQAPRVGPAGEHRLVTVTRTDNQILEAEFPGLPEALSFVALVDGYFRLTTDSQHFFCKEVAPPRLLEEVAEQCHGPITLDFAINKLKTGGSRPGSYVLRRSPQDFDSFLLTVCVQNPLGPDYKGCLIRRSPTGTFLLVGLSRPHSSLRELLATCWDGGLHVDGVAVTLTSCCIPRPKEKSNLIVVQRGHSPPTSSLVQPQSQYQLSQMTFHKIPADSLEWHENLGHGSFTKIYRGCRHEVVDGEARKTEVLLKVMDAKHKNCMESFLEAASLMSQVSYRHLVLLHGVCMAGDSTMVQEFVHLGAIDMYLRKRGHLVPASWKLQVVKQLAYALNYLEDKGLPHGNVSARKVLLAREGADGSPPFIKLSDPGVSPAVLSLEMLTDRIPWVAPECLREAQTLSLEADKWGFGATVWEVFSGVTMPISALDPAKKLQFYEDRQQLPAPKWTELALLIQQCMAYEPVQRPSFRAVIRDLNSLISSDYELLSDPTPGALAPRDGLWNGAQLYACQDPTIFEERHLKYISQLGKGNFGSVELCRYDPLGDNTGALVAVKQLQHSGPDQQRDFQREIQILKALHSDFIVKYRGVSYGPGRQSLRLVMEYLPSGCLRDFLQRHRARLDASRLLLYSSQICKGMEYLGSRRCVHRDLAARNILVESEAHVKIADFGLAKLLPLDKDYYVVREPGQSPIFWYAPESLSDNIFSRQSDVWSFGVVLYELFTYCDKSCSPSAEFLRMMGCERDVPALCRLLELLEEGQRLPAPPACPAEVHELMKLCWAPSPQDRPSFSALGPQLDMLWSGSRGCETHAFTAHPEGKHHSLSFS
Summary of the method: as §1

TYK2 = TYK2 (Homo sapiens, UniProt P29597); test: Biochemical potency on Tyk2, TR-FRET LANCE Ultra kinase assay (examples 1-99); conditions: ATP at Km (12 μM), read-out: Tyk2 inhibitory activity (pIC50 class) (converted)
Summary of the method: as §1

Chain of JAK 2 (O60674 whole entry, canonical isoform): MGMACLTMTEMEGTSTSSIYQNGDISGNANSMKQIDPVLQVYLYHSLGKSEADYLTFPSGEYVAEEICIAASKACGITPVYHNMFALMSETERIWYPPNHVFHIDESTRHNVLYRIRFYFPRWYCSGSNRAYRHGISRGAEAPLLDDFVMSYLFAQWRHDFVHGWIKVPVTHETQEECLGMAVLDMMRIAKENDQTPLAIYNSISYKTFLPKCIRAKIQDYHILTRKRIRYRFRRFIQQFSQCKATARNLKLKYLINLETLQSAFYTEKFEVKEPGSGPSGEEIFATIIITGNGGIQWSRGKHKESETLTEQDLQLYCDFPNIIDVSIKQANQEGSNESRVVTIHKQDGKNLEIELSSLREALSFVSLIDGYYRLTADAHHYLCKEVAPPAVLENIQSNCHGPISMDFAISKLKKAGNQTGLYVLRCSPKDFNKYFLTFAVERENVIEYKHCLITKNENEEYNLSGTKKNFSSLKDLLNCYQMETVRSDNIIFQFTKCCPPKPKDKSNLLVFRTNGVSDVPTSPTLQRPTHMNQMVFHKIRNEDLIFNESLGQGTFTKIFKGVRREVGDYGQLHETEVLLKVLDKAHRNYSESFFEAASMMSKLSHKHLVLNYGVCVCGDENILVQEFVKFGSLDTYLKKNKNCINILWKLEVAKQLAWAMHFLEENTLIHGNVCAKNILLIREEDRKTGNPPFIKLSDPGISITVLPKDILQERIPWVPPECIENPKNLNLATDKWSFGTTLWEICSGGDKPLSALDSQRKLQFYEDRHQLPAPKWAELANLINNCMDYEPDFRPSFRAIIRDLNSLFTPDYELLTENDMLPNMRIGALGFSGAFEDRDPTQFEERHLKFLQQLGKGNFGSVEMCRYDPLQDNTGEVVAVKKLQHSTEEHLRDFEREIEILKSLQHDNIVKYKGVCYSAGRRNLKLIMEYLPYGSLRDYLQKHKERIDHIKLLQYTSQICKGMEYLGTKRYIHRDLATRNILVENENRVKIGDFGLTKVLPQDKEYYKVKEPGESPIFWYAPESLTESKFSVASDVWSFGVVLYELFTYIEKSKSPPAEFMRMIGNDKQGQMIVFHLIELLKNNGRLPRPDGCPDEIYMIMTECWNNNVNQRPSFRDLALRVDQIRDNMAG
Chain of JAK 1 (P23458 whole entry): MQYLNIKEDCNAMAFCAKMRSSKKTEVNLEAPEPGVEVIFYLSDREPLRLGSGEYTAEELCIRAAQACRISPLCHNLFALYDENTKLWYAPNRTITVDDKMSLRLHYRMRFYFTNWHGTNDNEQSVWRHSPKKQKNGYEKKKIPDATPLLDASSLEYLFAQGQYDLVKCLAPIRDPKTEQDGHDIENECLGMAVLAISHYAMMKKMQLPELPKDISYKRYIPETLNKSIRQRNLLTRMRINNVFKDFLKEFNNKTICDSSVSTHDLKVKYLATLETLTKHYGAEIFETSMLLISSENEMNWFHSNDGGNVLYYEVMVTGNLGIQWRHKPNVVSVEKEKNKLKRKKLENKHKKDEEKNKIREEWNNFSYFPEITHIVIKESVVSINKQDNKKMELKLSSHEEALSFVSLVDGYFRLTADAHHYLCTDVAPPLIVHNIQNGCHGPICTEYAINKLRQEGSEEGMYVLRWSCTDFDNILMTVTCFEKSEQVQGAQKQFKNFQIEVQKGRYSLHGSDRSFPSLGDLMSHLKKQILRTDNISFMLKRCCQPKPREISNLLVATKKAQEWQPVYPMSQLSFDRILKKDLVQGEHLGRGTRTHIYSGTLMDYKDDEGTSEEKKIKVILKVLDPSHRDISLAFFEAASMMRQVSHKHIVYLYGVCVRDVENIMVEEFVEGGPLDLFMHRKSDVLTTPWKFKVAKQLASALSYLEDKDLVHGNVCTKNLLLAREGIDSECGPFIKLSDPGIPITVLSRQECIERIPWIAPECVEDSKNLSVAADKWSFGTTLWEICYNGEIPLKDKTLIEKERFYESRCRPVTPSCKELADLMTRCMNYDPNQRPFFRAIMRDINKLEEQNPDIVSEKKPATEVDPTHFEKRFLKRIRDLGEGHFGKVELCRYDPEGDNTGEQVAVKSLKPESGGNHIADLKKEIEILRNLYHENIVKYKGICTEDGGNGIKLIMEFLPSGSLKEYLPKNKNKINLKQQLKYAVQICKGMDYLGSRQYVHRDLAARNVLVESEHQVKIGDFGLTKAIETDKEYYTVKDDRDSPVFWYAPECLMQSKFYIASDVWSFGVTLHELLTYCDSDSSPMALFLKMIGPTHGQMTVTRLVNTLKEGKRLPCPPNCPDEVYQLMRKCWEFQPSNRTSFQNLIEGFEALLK
Chain of TYK2 (P29597 whole entry): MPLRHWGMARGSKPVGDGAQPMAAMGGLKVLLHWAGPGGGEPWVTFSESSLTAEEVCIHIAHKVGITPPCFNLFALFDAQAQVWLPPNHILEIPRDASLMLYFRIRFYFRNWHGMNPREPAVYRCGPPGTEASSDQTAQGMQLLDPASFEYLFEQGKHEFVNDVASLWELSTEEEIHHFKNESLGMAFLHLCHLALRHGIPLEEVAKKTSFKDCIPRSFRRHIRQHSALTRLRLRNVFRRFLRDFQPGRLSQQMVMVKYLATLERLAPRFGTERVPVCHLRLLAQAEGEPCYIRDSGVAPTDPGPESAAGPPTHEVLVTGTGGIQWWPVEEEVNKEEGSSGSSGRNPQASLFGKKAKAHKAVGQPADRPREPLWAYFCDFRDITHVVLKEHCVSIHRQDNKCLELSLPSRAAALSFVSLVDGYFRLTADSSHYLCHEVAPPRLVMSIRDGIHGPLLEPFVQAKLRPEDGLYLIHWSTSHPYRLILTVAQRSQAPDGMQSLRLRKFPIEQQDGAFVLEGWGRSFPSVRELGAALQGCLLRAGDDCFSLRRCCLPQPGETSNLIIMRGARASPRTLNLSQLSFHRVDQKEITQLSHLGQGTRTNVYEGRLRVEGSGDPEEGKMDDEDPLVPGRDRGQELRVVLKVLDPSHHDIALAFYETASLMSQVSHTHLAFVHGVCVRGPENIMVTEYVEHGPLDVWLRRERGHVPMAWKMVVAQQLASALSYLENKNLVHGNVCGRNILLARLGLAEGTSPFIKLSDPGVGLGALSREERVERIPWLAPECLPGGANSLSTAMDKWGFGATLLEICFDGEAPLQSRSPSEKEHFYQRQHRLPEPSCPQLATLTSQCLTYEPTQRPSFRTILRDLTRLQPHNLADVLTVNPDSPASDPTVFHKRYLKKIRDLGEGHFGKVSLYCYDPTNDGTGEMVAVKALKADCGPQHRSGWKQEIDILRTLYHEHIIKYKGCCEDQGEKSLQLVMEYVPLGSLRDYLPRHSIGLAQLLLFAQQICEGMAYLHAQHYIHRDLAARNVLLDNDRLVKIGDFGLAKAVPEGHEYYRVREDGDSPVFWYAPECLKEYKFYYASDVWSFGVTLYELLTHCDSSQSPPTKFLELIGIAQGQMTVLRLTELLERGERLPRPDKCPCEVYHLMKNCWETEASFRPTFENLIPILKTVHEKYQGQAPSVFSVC

SMILES | IC50 (JAK 2) [nM] | IC50 (JAK 1) [nM] | IC50 (JAK 3) [nM] | IC50 (TYK2) [nM]
COc1cnc(Cl)cc1-n1nc(C)c2cnc(-c3cnn4cccnc34)cc21 [Example 61, 1-(2-chloro-5-methoxypyridin-4-yl)-3-methyl-6-(pyrazolo[1,5-a]pyrimidin-3-yl)-1H-pyrazolo[4,3-c]pyridine] | 5.01 to 50.1 | 5.01 to 50.1 | 5.01 to 50.1 | > 50.1
CSc1ccc(OC(F)F)c(-n2nc(C(=O)NCCCN(C)C)c3cnc(-c4cnn5cccnc45)cc32)c1 [Example 37, 1-(2-(difluoromethoxy)-5-(methylthio)phenyl)-N-(3-(dimethylamino)propyl)-6-(pyrazolo[1,5-a]pyrimidin-3-yl)-1H-pyrazolo[4,3-c]pyridine-3-carboxamide] | ≤ 5.01 | ≤ 5.01 | ≤ 5.01 | 5.01 to 50.1
Cc1ccc(OC(F)F)c(-n2nc(C)c3cnc(-c4cnn5cccnc45)cc32)c1 [Example 65, 1-(2-(difluoromethoxy)-5-methylphenyl)-3-methyl-6-(pyrazolo[1,5-a]pyrimidin-3-yl)-1H-pyrazolo[4,3-c]pyridine] | 5.01 to 50.1 | 5.01 to 50.1 | ≤ 5.01 | 5.01 to 50.1
CSc1ccc(OC(F)F)c(-n2nc(C)c3cnc(-c4cnn5cccnc45)cc32)c1 [Example 13, 1-(2-(difluoromethoxy)-5-(methylthio)phenyl)-3-methyl-6-(pyrazolo[1,5-a]pyrimidin-3-yl)-1H-pyrazolo[4,3-c]pyridine] | ≤ 5.01 | ≤ 5.01 | ≤ 5.01 | 5.01 to 50.1
COc1ccc(Cl)cc1-n1ncc2c(N(C)C)nc(-c3cnn4cccnc34)cc21 [Example 51, 1-(5-chloro-2-methoxyphenyl)-N,N-dimethyl-6-(pyrazolo[1,5-a]pyrimidin-3-yl)-1H-pyrazolo[4,3-c]pyridin-4-amine] | 5.01 to 50.1 | 5.01 to 50.1 | 5.01 to 50.1 | > 50.1
COc1ccc(Cl)cc1-n1nc(C(=O)N[C@H]2C[C@H](N3CCOCC3)C2)c2cnc(-c3cnn4cccnc34)cc21 [Example 79, 1-(5-chloro-2-methoxyphenyl)-N-((1r,3r)-3-morpholinocyclobutyl)-6-(pyrazolo[1,5-a]pyrimidin-3-yl)-1H-pyrazolo[4,3-c]pyridine-3-carboxamide] | 5.01 to 50.1 | 5.01 to 50.1 | 5.01 to 50.1 | > 50.1
COc1ccc(C(F)F)cc1-n1nc(C)c2cnc(Nc3ncc[nH]c3=O)cc21 [Example 91, 3-((1-(5-(difluoromethyl)-2-methoxyphenyl)-3-methyl-1H-pyrazolo[4,3-c]pyridin-6-yl)amino)pyrazin-2(1H)-one] | ≤ 5.01 | 5.01 to 50.1 | ≤ 5.01 | 5.01 to 50.1
Cc1nn(-c2cc(Cl)ccc2OC(F)F)c2cc(-c3cnn4cccnc34)ncc12 [Example 11, 1-(5-chloro-2-(difluoromethoxy)phenyl)-3-methyl-6-(pyrazolo[1,5-a]pyrimidin-3-yl)-1H-pyrazolo[4,3-c]pyridine] | ≤ 5.01 | ≤ 5.01 | ≤ 5.01 | 5.01 to 50.1
Cc1nn(-c2cc(Cl)ccc2OC(F)F)c2cc(Nc3ncc[nH]c3=O)ncc12 [Example 99, 3-((1-(5-chloro-2-(difluoromethoxy)phenyl)-3-methyl-1H-pyrazolo[4,3-c]pyridin-6-yl)amino)pyrazin-2(1H)-one] | ≤ 5.01 | ≤ 5.01 | ≤ 5.01 | 5.01 to 50.1
CN(C)Cc1nn(-c2cc(Cl)ccc2OC(F)F)c2cc(-c3cnn4cccnc34)ncc12 [Example 30, 1-(1-(5-chloro-2-(difluoromethoxy)phenyl)-6-(pyrazolo[1,5-a]pyrimidin-3-yl)-1H-pyrazolo[4,3-c]pyridin-3-yl)-N,N-dimethylmethanamine] | 5.01 to 50.1 | 5.01 to 50.1 | 5.01 to 50.1 | > 50.1
